# Values of other authors in patent US20210161950A1, “Veterinary Supplement for Effecting Bone and Cartilage” (priority 2017, published 2021).
# What was measured:
# [1] = system: degenerated cartilage of the mandibular joint; conditions: oral strontium
# osteoarthritis = conditions: meta-analysis
compound,measurement,setting,value
[Sr+2] [strontium],cartilage thickness and cell density,[1],increased cartilage thickness and cell density
same,expression of cartilage catabolic factors and pro-inflammatory cytokines,[1],decreased expression
same,expression of cartilage matrix molecules such as Collagen II and aggrecan,[1],increased expression
same,subchondral bone loss and mandibular condylar cartilage degradation,[1],reversed
N[C@H]1C(O)O[C@H](CO)[C@@H](O)[C@@H]1O.O=S(=O)(O)O (stereo partly drawn) [glucosamine sulfate],connective tissue surrounding bones,"bone fractures in rats; rats, after 4 weeks of 230 milligrams glucosamine sulfate daily",more cellular and vascular
same,"strength of newly formed, previously fractured bones","bone fractures in rats; rats, after 4 weeks of 230 milligrams glucosamine sulfate daily, compared to controls",stronger compared to controls
N[C@H]1C(O)O[C@H](CO)[C@@H](O)[C@@H]1O (stereo partly drawn) [glucosamine],new bone formation and osteoblast lining,bone fractures in rats; glucosamine-treated rats compared to control groups,significantly higher
same,healing time of bone fractures,bone fractures in rats; rats,helped accelerate the healing time
same,mobility of joints,osteoarthritis,Improves mobility of joints
same,osteoarthritis progression,osteoarthritis,Reduces osteoarthritis progression
same,pain,osteoarthritis,Reduces pain
same,risk of total joint replacement,osteoarthritis,Reduces risk of total joint replacement
